Test results taken from patent publication US11306102B2, “1,3-di-substituted ketene compound and application thereof” (BEBETTER MED INC., priority 2017, dated 2022).
pEC50: −log10 of the molar value.

Assays:
PPARα = molecular target: T1, PPARα (Homo sapiens, UniProt Q07869); assay: Hela cell/luciferase reporter gene method, PPARα agonist activity; format: cell-based; settings: Hela cells, pPPRE3-TK-Luciferase reporter, 24 hrs incubation; read-out: agonistic activity on PPAα (EC50)
T1 construct: expressed in transfected cells; host or cells: Hela cells
T1 sequence (Q07869 1-468): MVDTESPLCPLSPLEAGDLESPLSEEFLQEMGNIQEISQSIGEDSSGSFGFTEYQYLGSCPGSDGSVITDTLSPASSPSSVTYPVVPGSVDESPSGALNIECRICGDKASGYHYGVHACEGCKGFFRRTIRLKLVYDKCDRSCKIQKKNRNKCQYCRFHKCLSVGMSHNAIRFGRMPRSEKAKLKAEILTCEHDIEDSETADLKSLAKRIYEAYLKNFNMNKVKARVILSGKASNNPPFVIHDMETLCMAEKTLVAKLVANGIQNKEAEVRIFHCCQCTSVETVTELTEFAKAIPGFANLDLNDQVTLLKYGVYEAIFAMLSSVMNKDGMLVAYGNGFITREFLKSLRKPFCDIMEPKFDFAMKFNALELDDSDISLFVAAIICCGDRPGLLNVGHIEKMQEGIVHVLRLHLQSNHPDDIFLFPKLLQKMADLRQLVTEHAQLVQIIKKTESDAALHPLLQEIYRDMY
Method: (§1) This example measures the biological activity of a PPAR agonist using the Hela cell/luciferase reporter gene method.
(§2) The target plasmids PCMV PPARα (Ampicillin+), PCMV PPARγ (Ampicillin+), PCMV PPARδ (Ampicillin+), and pPPRE3-TK-Luciferase (Ampicillin+) were introduced into DH5a competent cells by heat shock treatment, respectively. After being incubated for 1 hour at 37° C. with shaking (180 rpm), the cells were inoculated on LB agar solid medium containing antibiotic Ampicillin, and invertedly cultured at 37° C. for 12-16 hours. Then the monoclonal colony cultured on the medium was taken and inoculated into LB liquid medium for expanded culture. The desired plasmid was extracted from the resulting bacterial solution with a Plasmid Midi Kit (Qiagen; #12143). The plasmid obtained by centrifugation was suspended in TE buffer, and the plasmid concentration was measured and the mixture was stored at −20° C. Hela cells in the exponential phase were seeded in 6-well plates (8-10^5 cells/well), and after 6-8 hours of culture, the cells were transfected using Lipofectamine® 3000 Transfection Reagent (Invitrogen; #L3000015). A plasmid containing a PPAR binding site (peroxisome proliferator response element, PPRE) and a firefly luciferase gene (pPPRE3-TK-Luciferase) and PPAR expression vector were co-transfected into a Hela cell with a total amount of plasmid DNA of 2.5 ug (the mass ratio of each PPAR expression vector is pPPRE:PPARα=6:1, pPPRE:PPARδ=8:1, and pPPRE:PPARγ=2:1) to construct a drug screening cell model for PPAR agonists. PPAR was binded to the ligand and then binded to the peroxisome proliferator response element (PPRE), thereby initiating downstream firefly luciferase expression and its expression intensity was directly proportional to the degree of PPAR activation. The cells after 24 hours transfection were prepared into a cell suspension with a cell concentration of […] by a complete culture solution, and seeded into a 96-well plate with 100 ul per well. After overnight culture, the medium was changed to a medium containing 1% FBS. 10 mM candidate compound stock (1000×) were 4-fold diluted in DMSO for 8 points, then supplemented with medium containing 1% FBS to a final concentration of 50 uM (5×) by addition of 25 μl of 5× compound diluent to each well in different concentration gradients and incubated under 37° C., 5% CO2 incubator for 24 hrs. The 96-well plate was taken out and 30 μl of Bright-Glo™ Luciferase Assay System (Promega #E2620) was added to each well. The Luciferase luminescence intensity was measured by a SynergyH1 full-function microplate detector. The obtained data was used to calculate EC50 using GraphPad Prism 5.0 software to determine the biological activity of the compound.
(§3) The agonistic activity of the compounds synthesized in Examples 1-41 on PPAR is represented by EC50 (see Table 1). EC50 refers to the drug concentration at which the compound has a 50% increase in the agonistic activity of the measured PPAR. The compound numbers in Table 1 correspond to the compound numbers in Examples 1-41.

PPARγ = molecular target: T2, PPARγ (Homo sapiens, UniProt P37231); assay: Hela cell/luciferase reporter gene method, PPARγ agonist activity; format: cell-based; settings: Hela cells, pPPRE3-TK-Luciferase reporter, 24 hrs incubation; read-out: agonistic activity on PPARγ (EC50)
T2 construct: expressed in transfected cells; host or cells: Hela cells
T2 sequence (P37231 1-505): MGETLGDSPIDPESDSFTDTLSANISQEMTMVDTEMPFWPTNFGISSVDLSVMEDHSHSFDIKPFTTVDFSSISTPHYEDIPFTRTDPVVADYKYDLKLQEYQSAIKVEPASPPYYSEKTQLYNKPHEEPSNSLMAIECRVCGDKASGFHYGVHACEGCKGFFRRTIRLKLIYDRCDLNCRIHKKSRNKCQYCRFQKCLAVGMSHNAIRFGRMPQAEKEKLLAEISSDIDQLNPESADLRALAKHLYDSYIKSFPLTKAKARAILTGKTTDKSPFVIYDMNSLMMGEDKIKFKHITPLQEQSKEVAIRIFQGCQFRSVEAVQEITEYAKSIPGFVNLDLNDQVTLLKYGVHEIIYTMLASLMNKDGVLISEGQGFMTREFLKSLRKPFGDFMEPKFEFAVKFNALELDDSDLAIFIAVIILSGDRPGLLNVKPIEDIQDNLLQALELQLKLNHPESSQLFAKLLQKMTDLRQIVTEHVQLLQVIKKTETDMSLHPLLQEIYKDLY
Method: as §1, §2, §3

| SMILES | pEC50 (PPARα) | pEC50 (PPARγ) |
| --- | --- | --- |
| CSc1ccc(C(=O)/C=C/c2cc(C)c(OC(C)(C)C(=O)O)c(C)c2)c2oc(C)cc12 [Compound 14, (E)-2-(2,6-dimethyl-4-(3-(2-methyl-4-(methylthio)benzofuran-7-yl)-3-oxoprop-1-en-1-yl)phenoxy)-2-methylpropanoic acid] | 6.81 | 6.91 |
| CSc1ccc2c(C(C)C)c(C(=O)/C=C/c3cc(C)c(OC(C)(C)C(=O)O)c(C)c3)oc2c1 [Compound 64, (E)-2-(4-(3-(3-isopropyl-6-(methylthio)benzofuran-2-yl)-3-oxoprop-1-en-1-yl)-2,6-dimethylphenoxy)-2-methylpropanoic acid] | 6.98 |  |
| Cc1cc(/C=C/C(=O)c2ccc3scnc3c2)cc(C)c1OC(C)(C)C(=O)O [Compound 39, (E)-2-(4-(3-(benzo[d]thiazol-5-yl)-3-oxoprop-1-en-1-yl)-2,6-dimethylphenoxy)-2-methylpropanoic acid] | 6.44 |  |
| CCOc1ccc2cc(C(=O)/C=C/c3cc(C)c(OC(C)(C)C(=O)O)c(C)c3)oc2c1 [Compound 44, (E)-2-(4-(3-(6-ethoxylbenzofuran-2-yl)-3-oxoprop-1-en-1-yl)-2,6-dimethylphenoxy)-2-methylpropanoic acid] | 8.12 |  |
| CSc1ccc2c(C)c(C(=O)/C=C/c3cc(C)c(OC(C)(C)C(=O)O)c(C)c3)sc2c1 [Compound 82, (E)-2-(2,6-dimethyl-4-(3-(3-methyl-6-(methylthio)benzo[b]thiophen-2-yl)-3-oxoprop-1-en-1-yl)phenoxy)-2-methylpropanoic acid] | 7.15 |  |
| CSc1cccc2cc(C(=O)/C=C/c3cc(C)c(OC(C)(C)C(=O)O)c(C)c3)oc12 [Compound 58, (E)-2-(2,6-dimethyl-4-(3-(7-(methylthio)benzofuran-2-yl)-3-oxoprop-1-en-1-yl)phenoxy)-2-methylpropanoic acid] | 6.45 |  |
| CSc1ccc(C(=O)/C=C/c2cc(C)c(OC(C)(C)C(=O)O)c(C)c2)c2oc(C)nc12 [Compound 20, (E)-2-(2,6-dimethyl-4-(3-(2-methyl-4-(methylthio)benzo[d]oxazol-7-yl)-3-oxoprop-1-en-1-yl)phenoxy)-2-methylpropanoic acid] | 6.78 |  |
| CSc1ccc2c(C)c(C(=O)/C=C/c3cc(C(C)C)c(OC(C)(C)C(=O)O)c(C(C)C)c3)oc2c1 [Compound 104, (E)-2-(2,6-diisopropyl-4-(3-(3-methyl-6-(methylthio)benzofuran-2-yl)-3-oxoprop-1-en-1-yl)phenoxy)-2-methylpropanoic acid] | 6.42 |  |
| CSc1ccc2c(C(F)(F)F)c(C(=O)/C=C/c3cc(C)c(OC(C)(C)C(=O)O)c(C)c3)oc2c1 [Compound 73, (E)-2-(2,6-dimethyl-4-(3-(6-(methylthio)-3-(trifluoromethyl)benzofuran-2-yl)-3-oxoprop-1-en-1-yl)phenoxy)-2-methylpropanoic acid] | 8.42 |  |
| COc1cc(/C=C/C(=O)c2oc3cc(SC)ccc3c2C)cc(OC)c1OC(C)(C)C(=O)O [Compound 102, (E)-2-(2,6-dimethoxy-4-(3-(3-methyl-6-(methylthio)benzofuran-2-yl)-3-oxoprop-1-en-1-yl)phenoxy)-2-methylpropanoic acid] | 6.72 |  |
| CSc1ccc2cc(C(=O)/C=C/c3cc(C)c(OCC(=O)O)c(C)c3)oc2c1 [Compound 57, (E)-2-(2,6-dimethyl-4-(3-(6-(methylthio)benzofuran-2-yl)-3-oxoprop-1-en-1-yl)phenoxy)acetic acid] | 5.93 |  |
| Cc1cc(/C=C/C(=O)c2cc3ccccc3o2)cc(C)c1OC(C)(C)C(=O)O [Compound 49, (E)-2-(4-(3-(benzofuran-2-yl)-3-oxoprop-1-en-1-yl)-2,6-dimethylphenoxy)-2-methylpropanoic acid] | 6.06 |  |
| CCSc1ccc2c(C)c(C(=O)/C=C/c3cc(C)c(OC(C)(C)C(=O)O)c(C)c3)sc2c1 [Compound 94, (E)-2-(4-(3-(6-(ethylthio)-3-methylbenzo[b]thiophen-2-yl)-3-oxoprop-1-en-1-yl)-2,6-dimethylphenoxy)-2-methylpropanoic acid] | 7.38 |  |
| CSc1ccc2cc(C(=O)/C=C/c3cc(C(C)C)c(OC(C)(C)C(=O)O)c(C(C)C)c3)oc2c1 [Compound 101, (E)-2-(2,6-diisopropyl-4-(3-(6-(methylthio)benzofuran-2-yl)-3-oxoprop-1-en-1-yl)phenoxy)-2-methylpropanoic acid] | 6.32 |  |
| CSc1ccc2cc(C(=O)/C=C/c3cc(C)c(OC(C)(C)C(=O)O)c(C)c3)[nH]c2c1 [Compound 88, (E)-2-(2,6-dimethyl-4-(3-(6-(methylthio)-1H-indol-2-yl)-3-oxoprop-1-en-1-yl)phenoxy)-2 methylpropanoic acid] | 5.61 |  |
| CNc1ccc(C(=O)/C=C/c2cc(C)c(OC(C)(C)C(=O)O)c(C)c2)c2occc12 [Compound 2, (E)-2-(2,6-dimethyl-4-(3-(4-(methylamino)benzofuran-7-yl)-3-oxoprop-1-en-1-yl)phenoxy)-2-methylpropanoic acid] | 6.02 |  |
| COc1cc(/C=C/C(=O)c2cc3ccc(SC)cc3o2)cc(OC)c1OC(C)(C)C(=O)O [Compound 99, (E)-2-(2,6-dimethoxy-4-(3-(6-(methylthio)benzofuran-2-yl)-3-oxoprop-1-en-1-yl)phenoxy)-2-methylpropanoic acid] | 7.28 |  |
| CCCSc1ccc2c(C)c(C(=O)/C=C/c3cc(C)c(OC(C)(C)C(=O)O)c(C)c3)oc2c1 [Compound 75, (E)-2-(2,6-dimethyl-4-(3-(3-methyl-6-(propylthio)benzofuran-2-yl)-3-oxoprop-1-en-1-yl)phenoxy)-2-methylpropanoic acid] | 6.92 |  |
| Cc1cc(/C=C/C(=O)c2oc3cc(SC(C)C)ccc3c2C)cc(C)c1OC(C)(C)C(=O)O [Compound 77, (E)-2-(4-(3-(6-(isopropylthio)-3-methylbenzofuran-2-yl)-3-oxoprop-1-en-1-yl)-2,6-dimethylphenoxy)-2-methylpropanoic acid] | 6.92 |  |
| Cc1cc(/C=C/C(=O)c2ccc(SCC(C)C)c3ccoc23)cc(C)c1OC(C)(C)C(=O)O [Compound 9, (E)-2-(4-(3-(4-(isobutylthio)benzofuran-7-yl)-3-oxoprop-1-en-1-yl)-2,6-dimethylphenoxy)-2-methylpropanoic acid] | 7.33 |  |
| Cc1cc(/C=C/C(=O)c2oc3cc(SCC(C)C)ccc3c2C)cc(C)c1OC(C)(C)C(=O)O [Compound 76, (E)-2-(4-(3-(6-(isobutylthio)-3-methylbenzofuran-2-yl)-3-oxoprop-1-en-1-yl)-2,6-dimethylphenoxy)-2-methylpropanoic acid] | 7.23 |  |
